Laboratory results: patent US20230321085A1, “COMPOUND FOR USE IN THE TREATMENT OF DRY MOUTH” (ASAHI PHARMA CO., LTD., priority 2020, published 2023)

Legend:
[1] = test system: healthy non-elderly and elderly male and female subjects; assay: multiple ascending oral dose clinical study of the compound of the invention (second part); format: in vivo, human; settings: multiple oral doses 10, 30, 100, 150 mg
Experimental: The second part of the study investigated, multiple ascending oral doses in 4 cohorts (cohorts 2.1 to 2.4). Each cohort consisted of 12 healthy non-elderly male and female subjects, one optional cohort (cohort 2.5) consisting of 12 healthy nonelderly male and female subjects and one cohort (cohort 2.6) consisting of 12 healthy elderly male and female subjects who were randomized to receive the compound or matching placebo in a 3:1 ratio.
Actual dose levels were 10, 30, 100 and 150 mg of the compound (cohorts 2.1 to 2.4, respectively). The optional cohort 2.5 was not enrolled. The actual dose level for the elderly cohort (cohort 2.6) was 150 mg of the compound.
Sentinel dosing was employed for all cohorts. The first 2 subjects within a cohort (1 subject received the compound and 1 subject received matching placebo) were dosed at least 5 minutes apart. These 2 subjects were monitored for safety for 48 hours after receiving the first dose while dosing was continued. The remaining 10 subjects (8 with the compound and 2 with matching placebo) were divided into 2 sub-cohorts and were dosed at least 48 hours after the first 2 subjects with 48 hours between the 2 sub-cohorts.

[2] = test system: healthy non-elderly male and female subjects; assay: single ascending oral dose clinical study of the compound of the invention (first part); format: in vivo, human; settings: single oral dose 1, 3, 10, 30, 100, 150 mg
Experimental: In the first part of a randomized, subject- and investigator-blinded, placebo-controlled, single ascending oral dose, parallel group study comprising of 7 cohorts (cohorts 1.1 to 1.7) the compound of the invention was administered at dose levels of 1, 3, 10, 30, 100, and 150 mg. Each cohort consisted of 8 healthy non-elderly male and female subjects who were randomized to receive the compound or matching placebo in a 3:1 ratio.
After a screening period of 21 days, eligible subjects who had signed an informed consent form (ICF) to participate in the study were residential for a single treatment period of 5 days/4 nights. Subjects were admitted to the clinical unit on day −1. After randomization on day 1, subjects received a single oral dose of the compound or matching placebo under fasting. Each cohort was completed with an end-of-study visit, which took place 5 to 9 days after the last pharmacokinetic sample had been collected (or early discontinuation from the study).

awake rats = assay: effect on salivation in awake rats (oral administration); format: in vivo, rat; settings: for duration of effect on salivation: oral administration to awake rats
Experimental: Pilocarpine therefore alleviates the dry mouth symptoms, but it leads to hyperhidrosis as a further side effect. Moreover, experiments in rats have shown that the effect of pilocarpine on salivation is only short-lived and that initial salivation levels are approached after about 60 minutes (FIG. 1).
Moreover, experiments have shown that its effect on salivation is long-lasting (FIG. 2 as well as FIGS. 3, 4 and 5).

[3] = clinical study with a reference M3 PAM (similar to first study in Example 2); format: in vivo, human; settings: dose levels of 1, 3, 10, 30 and 90 mg, FIG. 6
Experimental: In a study similar to the first study in Example 2, a known M3 positive allosteric modulator reference compound (example 8 of EP 2 963 036) with the following structure
was administered in dose levels of 1, 3, 10, 30 and 90 mg.

healthy subjects = assay: Phase 1 study of the effect of pilocarpine on salivary secretion in healthy subjects; format: in vivo, human; settings: for participants reporting hyperhidrosis as side effect: periods 1 to 4
Experimental: A Phase 1 study to investigate the effect of pilocarpine on salivary secretion was conducted in 12 healthy subjects. The study was conducted as a randomized, subject- and investigator-blinded, placebo-controlled, oral dose clinical study using a 5-way balanced extra period design. Pilocarpine capsules containing 2.5 mg were administered orally (1 capsule for a 2.5 mg dose, 2 capsules for a dose of 5.0 mg pilocarpine and 4 capsules for a dose of 10 mg pilocarpine). Subjects were admitted to the clinical unit on day 1 and were residential for a period of 6 days and 5 nights. Subjects were randomized to 1 of 4 treatment sequences on day 1 prior to study drug administration. Each study period was approximately 1 day and subjects received the different oral doses of the study drug (pilocarpine or placebo to match) in periods 1 through 5. There was a 4-hour saliva collection period following every dose and a washout period of at least 24 hours between doses. To assess the pharmacodynamic effect of pilocarpine on saliva secretion, saliva samples were collected over 5-minute intervals from pre-dose until 4 hours post-dose at the timepoints 0.5, 0.75, 1.0, 1.5, 2.0, 3.0 and 4.0 h.

SMILES | hyperhidrosis as a side effect [1] | salivary secretion rates ([1]; FIG. 5) | hyperhidrosis as a side effect [2] | salivary secretion rates ([2]; FIG. 4) | duration of effect on salivation (awake rats) [h] | impact on salivation [3] | sweating (healthy subjects; clinically relevant doses (5 mg and 10 mg qd)) | effect on salivation (healthy subjects; human trials, 2.5, 5 and 10 mg pilocarpine) | participants reporting hyperhidrosis as side effect (healthy subjects; pilocarpine dose of 5 mg) [%] | participants reporting hyperhidrosis as side effect (healthy subjects; pilocarpine dose of 10 mg) [%] | time after which initial salivation levels are approached (awake rats; rats, FIG. 1)
C[C@@H]1CCCN1Cc1sc(NC(=O)c2cnc(N3CCN(CCC(=O)O)[C@@H](C)C3)cn2)nc1-c1cc(Cl)cs1 [compound of the invention] | not reported | increased salivary secretion rates | not reported | increased salivary secretion rates | ≥ 8 |  |  |  |  |  | 
CC[C@@H]1CCCN1Cc1sc(NC(=O)c2cnc(N3CCC(C(=O)O)CC3)cn2)nc1-c1ccc(OC)c(C(F)(F)F)c1 [example 8 of EP 2 963 036] |  |  |  |  |  | do not significantly impact salivation |  |  |  |  | 
CC[C@@H]1C(=O)OC[C@@H]1Cc1cncn1C [pilocarpine] |  |  |  |  | ≤ 1 |  | a significant number of the patients suffered from sweating | increased salivation | 8.3 | 50 | about 60 minutes
